# Data: patent EP4582094A1, “ISCHEMIA-REPERFUSION INJURY INHIBITOR” (Tohoku University, priority 2022, dated 2024)
# How the values were obtained:
# [1] = Rat isogeneic lung transplantation: ischemia-reperfusion injury after lung preservation; assay type: in vivo, Lewis rats; conditions: lung preservation solution containing 300 µM GSSSG, six hours at 4°C, an hour after the reperfusion, vs control group
# Protocol: In the GSSSG group (n=3), ET-TU solution containing GSSSG was used as the lung preservation solution. The GSSSG concentration was 300 µM, at which GSSSG could be mixed into EP-TU while maintaining pH 7 in a preliminary experiment. In the control group (n=3), ET-TU solution was used as it was as the lung preservation solution. As the rats, Lewis rats (male, 13-18 weeks, 275-350 g) were used both as the donors and the recipients.
# The left lung of a donor was preserved for six hours at 4°C using the lung preservation solution (EP-TU) and transplanted into the left lung of a recipient rat. After reperfusion for an hour after the lung transplantation, the right pulmonary hilum (pulmonary artery and vein/bronchus) was blocked, and the degree of ischemia-reperfusion injury of the left lung was evaluated. As indicators for ischemia-reperfusion injury, the weight gain of the grafted lung (weight after transplantation - weight before transplantation) and the arterial oxygen tension (PaO2) after blocking the right pulmonary hilum were used.
# [2] = Mouse lung ischemia-reperfusion injury (pulmonary hilum clamping): physiological and histopathological evaluation of pulmonary edema; assay type: in vivo, C57BL/6J mice
# Protocol: GSSSG (MW 644) was dissolved in 0.1 M HCl to 25 mM GSSSG. Next, 20 µL of 25 mM GSSSG was added to 50 µL of 10x PBS and 430 µL of DW, and thus 500 µL of GSSSG solution (1 mM, 322 µg GSSSG) was adjusted in the end.
# (§1) An intervention group (N = 4) in which 500 µL of the GSSSG solution was intraperitoneally administered to C57BL/6J mice (22 months old, male) an hour before pulmonary hilum clamping surgery and a control group (N = 4) in which 500 µL of normal saline solution (NSS) was intraperitoneally administered were set. The pulmonary hilum structure was clamped together for 60 minutes, and the IRI was evaluated an hour and a day after releasing clamping.
# The wet to dry weight ratios were measured as physiological evaluation of pulmonary edema due to the IRI (N = 4 in each group).
# The alveolar edema was scored, and the edema around the pulmonary arteries was quantified as histopathological evaluation of pulmonary edema due to the IRI (N = 6 in each group). The scoring was conducted according to the criteria below, and an average of 10 fields was calculated for each mouse. Regarding the edema around the pulmonary arteries, three to five pulmonary arteries per mouse were extracted, and an average of the area ratios of the pulmonary artery and the edema around the artery was calculated.
# • 0 = no finding • 1 = finding in 1-25% • 2 = finding in 26-50% • 3 = finding in 51-75% • 4 = finding in 76-100%
# [3] = tested on: HeLa cells; experiment: Mitochondrial membrane potential, JC-10 staining; assay type: cell-based; conditions: GSSSG added to medium at 1 µM, 10 µM and 100 µM; 24 hours; even at a low concentration; FIG. 3
# Protocol: HeLa cells were cultured in DMEM (low glucose) medium containing 10% FBS, and GSSSG was added to the medium at different concentrations (1 µM, 10 µM and 100 µM). The cells were stained with JC-10, which is a reagent for detecting mitochondrial membrane potential, after 24 hours and observed with a confocal microscope, and the fluorescent intensities were measured with a plate reader.
# [4] = tested on: IL1b; experiment: RT-PCR gene expression of inflammatory cytokines in lung tissue after IRI; assay type: in vivo, C57BL/6J mice; conditions: lung tissue after the IRI; GSSSG administration group vs control; FIG. 2
# Protocol: as §1
# (§2) The inflammation due to the IRI was evaluated with gene expression of inflammatory cytokines in lung tissue. The wet to dry weight ratios were evaluated with N = 4 in each group, and the other items were evaluated with N = 5-6 in each group.
# [5] = tested on: IL10; experiment: as above; assay type: in vivo, C57BL/6J mice; conditions: lung tissue after the IRI; GSSSG administration group vs control; FIG. 2
# Protocol: as §1, §2
# [6] = tested on: TNFα; experiment: as above; assay type: in vivo, C57BL/6J mice; conditions: lung tissue after the IRI; GSSSG administration group vs control; FIG. 2
# Protocol: as §1, §2
# [7] = tested on: IL6; experiment: as above; assay type: in vivo, C57BL/6J mice; conditions: lung tissue after the IRI; GSSSG administration group vs control; FIG. 2
# Protocol: as §1, §2
smiles,measurement,setting,value
"N[C@@H](CCC(=O)N[C@@H](CSSSC[C@H](NC(=O)CC[C@H](N)C(=O)O)C(=O)NCC(=O)O)C(=O)NCC(=O)O)C(=O)O [GSSSG, glutathione trisulfide]",arterial oxygen tension (PaO2) after blocking the right pulmonary hilum,[1]; FIG. 10A,improved
same,weight gain of the grafted lung,[1]; FIG. 10B,decreased
same,edema around the pulmonary arteries,"[2]; 500 µL GSSSG solution (1 mM) intraperitoneally an hour before clamping, area ratio of pulmonary artery and edema around it, vs control group, FIG. 1c",relief of pulmonary edema was observed
same,score of alveolar edema,"[2]; 500 µL GSSSG solution (1 mM) intraperitoneally an hour before clamping, histopathological evaluation, vs control group, FIG. 1b",relief of pulmonary edema was observed
same,wet to dry weight ratio,"[2]; 500 µL GSSSG solution (1 mM, 322 µg) intraperitoneally an hour before 60 min pulmonary hilum clamping, 22 months old male mice, an hour and a day after the IRI, vs control group (NSS), FIG. 1a",decreased with a significance
same,mitochondrial membrane potential,[3],increased with a significance
same,gene expression of IL1b,[4],no difference was observed
same,gene expression of IL10,[5],decreased with a significance
same,gene expression of TNFα,[6],no difference was observed
same,gene expression of IL6,[7],decreased with a significance
